Reference: US4404206A, “Substituted iminoacid derivatives, process for preparing them and their use as enzyme inhibitors” (Science Union et Cie, priority 1979, dated 1983)

Tested on: enzyme responsible for the conversion of angiotension I into angiotension II
Test: Inhibition of the angiotensin I pressor response in dogs after intravenous administration (arterial pressure recorded)
Format: in vivo
Conditions: dog
Procedure: The compounds of the invention are tested in […] dogs, maintained in forced respiration by an apparatus.
The aorta is catheterized by way of the femoral arteria, and the arterial pressure is registered by an appropriate instrument.
Angiotension I and II are administered to the animals intravenously at the dose of 0.3 γ/Kg. After registering of the dose/activity relation curve, the compounds of the invention are administered also by the intravenous route and modification of the blood pressure is also registered.
The results obtained by the new compounds are summarized in the table hereinafter and are expressed in percentage of inhibition of the enzyme activity. The numbers in the brackets indicate the dose of the active enantiomer contained in the administered doses.

[1] = dose 10 (2,5) mg/Kg IV, time 15 minutes
[2] = dose 10 (2,5) mg/Kg IV, time 30 minutes
[3] = dose 10 (2,5) mg/Kg IV, time 1 h 30 min.
[4] = dose 10 (2,5) mg/Kg IV, time 1 hour
[5] = dose 10 (2,5) mg/Kg IV, time 2 hours
[6] = dose 10 (2,5) mg/Kg IV, time 3 hours
[7] = dose 20 mg/Kg IV, time 15 minutes
[8] = dose 20 mg/Kg IV, time 30 minutes
[9] = dose 20 mg/Kg IV, time 1 h 30 min.

Row | Structure (SMILES) | Percentage of inhibition (of the enzyme activity) (dose 5 (1,25) mg/Kg IV, time 15 minutes) [%] | Percentage of inhibition (of the enzyme activity) (dose 5 (1,25) mg/Kg IV, time 30 minutes) [%] | Percentage of inhibition (of the enzyme activity) (dose 5 (1,25) mg/Kg IV, time 1 h 30 min.) [%] | Percentage of inhibition (of the enzyme activity) (dose 5 (1,25) mg/Kg IV, time 1 hour) [%] | Percentage of inhibition (of the enzyme activity) (dose 5 (1,25) mg/Kg IV, time 2 hours) [%] | Percentage of inhibition (of the enzyme activity) (dose 5 (1,25) mg/Kg IV, time 3 hours) [%] | Percentage of inhibition (of the enzyme activity) [1] [%] | Percentage of inhibition (of the enzyme activity) [2] [%] | Percentage of inhibition (of the enzyme activity) [3] [%] | Percentage of inhibition (of the enzyme activity) [4] [%] | Percentage of inhibition (of the enzyme activity) [5] [%] | Percentage of inhibition (of the enzyme activity) [6] [%] | Percentage of inhibition (of the enzyme activity) [7] [%] | Percentage of inhibition (of the enzyme activity) [8] [%] | Percentage of inhibition (of the enzyme activity) [9] [%] | Percentage of inhibition (of the enzyme activity) (dose 20 mg/Kg IV, time 1 hour) [%] | Percentage of inhibition (of the enzyme activity) (dose 20 mg/Kg IV, time 2 hours) [%] | Percentage of inhibition (of the enzyme activity) (dose 20 mg/Kg IV, time 3 hours) [%]
1 | C[C@@H](CS)C(=O)N1C2CCCCC2C[C@@H]1C(=O)O (mixture of isomers) [Example 5, N-[3-mercapto 2-(RS)methylpropionyl] 2-(RS) carboxy perhydroindole] | 100 | 100 | 90 | 100 | 71 | 54 | 100 | 92 | 92 | 92 | 92 | 86 |  |  |  |  |  | 
2 | CC(CS)C(=O)N1Cc2ccsc2CC1C(=O)O (racemic) [Example 6] |  |  |  |  |  |  |  |  |  |  |  |  | 47 | 51 | 30 | 37 | 26 | 23
3 | CC(CS)C(=O)N1C(C(=O)O)CCC2CCCCC21 (racemic) [Example 8, 1-[3 mercapto 2-(RS)methylpropionyl] 2-(RS) carboxy perhydroquinoline.] |  |  |  |  |  |  | 72 | 69 | 50 | 64 | 36 | 31 |  |  |  |  |  | 
4 | CC(CS)C(=O)N1CC2CCCCC2CC1C(=O)O (stereo not drawn) [Example 1, 2-(3-mercapto-2-(RS)-methylpropionyl)-cis-perhydroisoquinoline-3-carboxylicacid] |  |  |  |  |  |  |  |  |  |  |  |  | 100 | 100 | 76 | 90 | 70 | 42
5 | C[C@@H](CS)C(=O)N1CC2CCCCC2[C@@H]1C(=O)O (mixture of isomers) [Example 7, N-[3-mercapto 2-(RS)methylpropionyl] 1-(RS) carboxy perhydroisoindole] |  |  |  |  |  |  | 83 | 64 | 48 | 62 | 40 | 26 |  |  |  |  |  | 
6 | CC(CC(=O)O)C(=O)N1Cc2ccccc2C[C@H]1C(=O)O (mixture of isomers) [Example 9, 2-[3-carboxy 2-(RS)methylpropionyl] 3-(S) carboxy 1,2,3,4-tetrahydroisoquinoline] |  |  |  |  |  |  |  |  |  |  |  |  | 38 | 35 | 25 | 25 | 48 | 25
